Measurements from a compilation of properties of binary mixtures (doi:10.1016/j.molliq.2021.117187).

Assay: xn = mol fraction of the nth substance listed
Conditions: 100 kPa

CCCC[n+]1ccn(C)c1.F[B-](F)(F)F + CCOC(C)=O
speed of sound [m/s]
Conditions	x1 = 0.1012	x1 = 0.1992	x1 = 0.312	x1 = 0.3985	x1 = 0.5056	x1 = 0.5996	x1 = 0.7054	x1 = 0.7963	x1 = 0.9185
298.15 K	1186	1228.1	–	1307	1351.4	–	1437.5	–	–
303.15 K	1164.6	1207.8	–	–	1334.1	–	1422.3	–	1509.6
308.15 K	–	–	1232	1270.6	1317.1	1360.3	1407.5	–	1496.9
313.15 K	–	1167.6	–	1252.4	–	–	1392.6	1438.8	1484.1
318.15 K	–	1147.5	1193.9	1234.4	1283.1	1328.3	1377.8	1425.1	–
323.15 K	1080.1	1127.5	1175	1216.4	–	1312.6	1363.2	1411.6	1459.1
